B1: GgCAD (Gallus gallus) (protein)
chain: MAEQSDLERPAVDGAAGEEFLRAAFQVLLEEAVRKGTDVAQKVCEWKEPHELRELLDLELRSHGEPAGRLLERCRDIIRYSVKTCHPRFFNQLFSGLDHHALAGRLLTETLNTSQYTYEIAPVFVLMEEVVLAKLRELVGWNSGDGIFCPGGSISNMYAMNVARFQRFPESRQQGSRALPRLVLFASEECHYSIQKGAAFLGIGTDNVVLVRADERGKMIPEELEKEIERVKSEGAVPFFVSATSGTTVLGAFDPLGPVADVCQRHGLWLHVDAAWGGSALLSRKHRQLLAGIERADSVAWNPHKMLTVGLQCSAFLLRDDSGLLQRCHGAGAAYLFQPDKFYDVMFDTGDKTVQCGRRVDCLKLWLLWKAVGSEGLEQRVDRAFACTSYLAAEMKRRDGFQLVLEPEFINLCFWFVPPSLRGQQGCTDFGPRLGKVAPAIKERMMKEGSMMVGYQPHGTRPNFFRQIVTSPAVTRADLDFFLDEIERLGCDL

Tests used:
[1] = molecular target: T1, DrCSAD (Danio rerio, UniProt A0A8M1N2X8); test: 1H NMR product quantification, specific activity; format: biochemical; settings: 5 min reaction stopped with 1 M HCl, pH 7.0, 25 C; preferred substrate
T1 sequence (A0A8M1N2X8 1-500): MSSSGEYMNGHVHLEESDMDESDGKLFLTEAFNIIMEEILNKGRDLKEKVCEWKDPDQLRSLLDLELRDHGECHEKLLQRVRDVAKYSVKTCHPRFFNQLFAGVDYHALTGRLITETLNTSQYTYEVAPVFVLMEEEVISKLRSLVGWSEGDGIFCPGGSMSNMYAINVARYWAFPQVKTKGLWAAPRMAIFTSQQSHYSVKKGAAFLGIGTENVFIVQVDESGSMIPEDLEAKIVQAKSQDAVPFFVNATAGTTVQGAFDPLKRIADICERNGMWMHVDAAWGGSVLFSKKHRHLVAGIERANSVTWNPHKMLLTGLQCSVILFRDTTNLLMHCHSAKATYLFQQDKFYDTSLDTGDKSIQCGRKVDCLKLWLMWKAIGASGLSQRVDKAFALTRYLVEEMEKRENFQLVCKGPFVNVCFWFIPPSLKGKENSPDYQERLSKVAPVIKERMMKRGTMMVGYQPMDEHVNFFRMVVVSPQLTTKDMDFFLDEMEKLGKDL

[2] = molecular target: T2, HsCSAD (Homo sapiens, UniProt Q9Y600); test: 1H NMR product quantification, specific activity; format: biochemical; settings: 5 min reaction stopped with 1 M HCl, pH 7.0, 25 C; preferred substrate
T2 sequence (Q9Y600 1-493): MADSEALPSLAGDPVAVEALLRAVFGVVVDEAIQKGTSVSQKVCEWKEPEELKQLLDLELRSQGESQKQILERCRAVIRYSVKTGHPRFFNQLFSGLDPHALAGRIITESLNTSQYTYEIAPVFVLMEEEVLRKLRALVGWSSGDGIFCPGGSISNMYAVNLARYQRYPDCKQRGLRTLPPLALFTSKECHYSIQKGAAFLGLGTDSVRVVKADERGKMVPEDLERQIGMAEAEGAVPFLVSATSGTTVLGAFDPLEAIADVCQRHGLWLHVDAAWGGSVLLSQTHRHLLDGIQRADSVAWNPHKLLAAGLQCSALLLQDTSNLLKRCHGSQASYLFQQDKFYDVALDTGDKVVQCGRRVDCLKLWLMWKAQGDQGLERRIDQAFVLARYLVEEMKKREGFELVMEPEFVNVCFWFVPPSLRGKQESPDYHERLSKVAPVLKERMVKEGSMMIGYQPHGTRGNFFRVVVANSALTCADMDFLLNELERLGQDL

[3] = substrate: N[C@@H](CS(=O)(=O)O)C(=O)O; test: time-resolved 1H NMR, integrated Michaelis-Menten fit of progress curve; format: biochemical, Gallus gallus; settings: 50 mM NaH2PO4 pH 7.0, 25 C, H2O:D2O 9:1, example time course

Row | Molecule | specific activity [1] | specific activity [2] | Km [3]
1 | N[C@@H](CS(=O)O)C(=O)O [CSA, cysteine sulfinic acid] | observed the same preference for CSA in a CSAD ortholog of a basal vertebrate | We confirmed the opposite preference for the CSA substrate in human CSAD | –
2 | B1 | – | – | 6.95 ± 3.23 mM

Reference: publication PMC8364350 (Nature ecology & evolution, 2020)
